Tests used:
[1] = biological target: T1, PRMT5-MEP50 enzyme complex (Homo sapiens, UniProt O14744); assay: In vitro PRMT5 enzyme activity assay (methylation of histone H4 arginine H4R3, ELISA absorbance at 450 nm); type: biochemical; conditions: S-adenosylmethionine, histone H4 peptide, 2 hours at room temperature, 8 points 10 μM to 0.128 nM
T1 construct: purchased BPS Bioscience (USA) 51045
Outline: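 Human PRMT5-MEP50 (5 μg/mL working stock) with 2 μM SAM stock on histone H4 (1-20) peptide-coated plates, compound 8-point 1:5 series from 10 μM, 2 h at room temperature. H4R3 methylation detected by antibody/HRP ELISA, absorbance 450 nm; IC50 calculated.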

SDMA levels in the tumor = assay: Test for in vivo target inhibitory activity (SDMA levels in U87MG tumor); conditions: U87MG tumor cells implanted subcutaneously in nude mice, oral 25 or 50 mg/kg 1-2 times daily for one week
Protocol: Test for In Vivo Target Inhibitory Activity
After U87MG tumor cells were implanted subcutaneously in nude mice, a PRMT5 inhibitor was administered orally (25 or 50 mg/kg) 1-2 times daily for one week, and then the degree to which SDMA levels in the tumor decreased was measured.
Reagents: Bradford's solution (Catalog No. 500-0006) was purchased from Bio-rad (USA). SDMA antibody (Catalog No. 13222s) was purchased from Cell Signaling Technology (USA). SmD3 antibody (Catalog No. ap12451a) was purchased from Abgent (USA), and secondary antibody (Catalog No. ab6721) and TMB substrate (Catalog No. ab210902) were purchased from Abcam (UK).
Experimental procedure: The tumor tissues transplanted into the mice were excised, the cells were lysed, and then quantified with Bradford's solution. 5-10 μg of protein per sample was diluted with carbonate-bicarbonate buffer and dispensed into a 96-well plate and reacted at room temperature for 2 hours. After washing with phosphate buffered saline (PBST) containing 0.05% Tween-20 3 times, 200 μL of PBST containing 5% bovine serum albumin (BSA-PBST) was added and reacted at room temperature for 2 hours. After washing with PBST 3 times, the SDMA antibody and the SmD3 antibody were diluted in BSA-PBST, and 100 μL of each was dispensed onto the plate and reacted at 4° C. overnight. After washing with PBST 3 times the next day, 100 μL of the secondary antibody diluted in BSA-PBST was added and reacted at room temperature for 1 hour. After washing with PBST 3 times, 100 μL of TMB substrate was added and reacted at room temperature for 10-20 minutes, and 100 μL of 1N sulfuric acid solution was added to terminate the reaction. Then, the absorbance at 450 nm was measured to calculate the degree of SDMA inhibition by the compound. (+++: more than 70%, ++: more than 30% and 70% or less, +: 30% or less)

T1 sequence (O14744 2-637 limits assumed): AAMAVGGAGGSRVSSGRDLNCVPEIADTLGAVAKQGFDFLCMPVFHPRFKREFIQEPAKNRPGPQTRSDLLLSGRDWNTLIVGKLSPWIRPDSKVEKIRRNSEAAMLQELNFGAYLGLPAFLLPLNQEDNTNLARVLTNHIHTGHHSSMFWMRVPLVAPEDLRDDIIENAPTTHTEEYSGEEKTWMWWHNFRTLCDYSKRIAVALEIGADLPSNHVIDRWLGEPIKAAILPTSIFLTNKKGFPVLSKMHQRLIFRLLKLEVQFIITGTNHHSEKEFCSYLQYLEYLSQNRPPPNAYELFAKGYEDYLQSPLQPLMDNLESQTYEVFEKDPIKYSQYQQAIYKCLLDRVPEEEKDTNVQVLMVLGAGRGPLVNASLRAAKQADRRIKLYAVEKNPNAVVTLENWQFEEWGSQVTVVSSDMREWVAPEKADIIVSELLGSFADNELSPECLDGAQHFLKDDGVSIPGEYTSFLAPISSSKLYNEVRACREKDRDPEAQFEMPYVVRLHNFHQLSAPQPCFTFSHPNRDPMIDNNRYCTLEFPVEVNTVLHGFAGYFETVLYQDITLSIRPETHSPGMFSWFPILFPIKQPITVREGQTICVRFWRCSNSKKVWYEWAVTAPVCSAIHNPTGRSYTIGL
T1 sequence (Q9BQA1 2-342 partner limits assumed): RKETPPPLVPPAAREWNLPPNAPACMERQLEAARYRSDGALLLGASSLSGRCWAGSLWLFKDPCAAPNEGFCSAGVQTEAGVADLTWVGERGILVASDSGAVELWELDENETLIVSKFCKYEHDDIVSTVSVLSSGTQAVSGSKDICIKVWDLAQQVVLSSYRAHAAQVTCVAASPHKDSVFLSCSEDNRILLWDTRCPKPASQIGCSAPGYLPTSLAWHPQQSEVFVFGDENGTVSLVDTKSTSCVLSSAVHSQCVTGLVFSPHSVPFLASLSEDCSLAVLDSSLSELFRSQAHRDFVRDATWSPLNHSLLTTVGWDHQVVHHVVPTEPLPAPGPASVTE

In the case of `O=C1c2ccc(N3CCOCC3)cc2CCN1C[C@H](O)CN1CCc2ccccc2C1` [Example 4, 2-[(2R)-3-(3,4-dihydro-1H-isoquinolin-2-yl)-2-hydroxy-propyl]-6-morpholino-3,4-dihydroisoquinoline-1-one], the IC50 [1] is reported as 1 to 100 nM and the SDMA inhibition (SDMA levels in the tumor) is reported as “++ (++: more than 30% and 70% or less)”.
In the case of `C[C@@H]1CN(c2ccc3c(c2)CCN(C[C@H](O)CN2CCc4ccccc4C2)C3=O)C[C@H](C)O1` [Example 14, 2-[(2R)-3-(3,4-dihydro-1H-isoquinolin-2-yl)-2-hydroxy-propyl]-6-[(2R,6S)-2,6-dimethylmorpholin-4-yl]-3,4-dihydroisoquinolin-1-one], the IC50 [1] is reported as 100 to 1000 nM and the SDMA inhibition (SDMA levels in the tumor) is reported as “+++ (+++: more than 70%)”.
With `O=CN1CCN(c2ccc3c(c2)CCN(C[C@H](O)CN2CCc4ccccc4C2)C3=O)CC1` [Example 87, 4-[2-[(2R)-3-(3,4-dihydro-1H-isoquinolin-2-yl)-2-hydroxy-propyl]-1-oxo-3,4-dihydroisoquinolin-6-yl]piperazine-1-carbaldehyde] the IC50 [1] was 1 to 100 nM and the SDMA inhibition (SDMA levels in the tumor) was “++ (++: more than 30% and 70% or less)”.
With `CCN1CCC(Oc2ccc3c(c2)CCN(C[C@H](O)CN2CCc4ccccc4C2)C3=O)C1` (stereo partly drawn) [Example 134, 2-[(2R)-3-(3,4-dihydro-1H-isoquinolin-2-yl)-2-hydroxy-propyl]-6-(1-ethylpyrrolidin-3-yl)oxy-3,4-dihydroisoquinolin-1-one] the IC50 [1] was 100 to 1000 nM.
With `CN1CCC(Oc2ccc3c(c2)CCN(C[C@H](O)CN2CCc4ccccc4C2)C3=O)CC1` [Example 135, 2-[(2R)-3-(3,4-dihydro-1H-isoquinolin-2-yl)-2-hydroxy-propyl]-6-[(1-methyl-4-piperidyl)oxy]-3,4-dihydroisoquinolin-1-one] the IC50 [1] was 100 to 1000 nM and the SDMA inhibition (SDMA levels in the tumor) was “+++ (+++: more than 70%)”.
For `O=C1c2ccc(OC3CCN(C4COC4)CC3)cc2CCN1C[C@H](O)CN1CCc2ccccc2C1` [Example 136, 2-[(2R)-3-(3,4-dihydro-1H-isoquinolin-2-yl)-2-hydroxy-propyl]-6-[[1-(oxetan-3-yl)-4-piperidyl]oxy]-3,4-dihydroisoquinolin-1-one], the IC50 [1] was 1 to 100 nM.
With `O=C1c2ccc(C#CCO)cc2CCN1C[C@H](O)CN1CCc2ccccc2C1` [Example 137, 2-[(2R)-3-(3,4-dihydro-1H-isoquinolin-2-yl)-2-hydroxypropyl]-6-(3-hydroxyprop-1-ynyl)-3,4-dihydroisoquinolin-1-one] the IC50 [1] was 100 to 1000 nM.
For `O=C1c2ccc(C#Cc3ccncc3)cc2CCN1C[C@H](O)CN1CCc2ccccc2C1` [Example 138, 2-[(2R)-3-(3,4-dihydro-1H-isoquinolin-2-yl)-2-hydroxypropyl]-6-[2-(4-pyridyl)ethynyl]-3,4-dihydroisoquinolin-1-one], the IC50 [1] was 100 to 1000 nM.
With `CN1CCCC(Oc2ccc3c(c2)CCN(C[C@H](O)CN2CCc4ccccc4C2)C3=O)C1` (stereo partly drawn) [Example 139, 2-[(2R)-3-(3,4-dihydro-1H-isoquinolin-2-yl)-2-hydroxypropyl]-6-[(1-methyl-3-piperidyl)oxy]-3,4-dihydroisoquinolin-1-one] the IC50 [1] was 1 to 100 nM.
`O=C1c2ccc(OC3CCCN(CCF)C3)cc2CCN1C[C@H](O)CN1CCc2ccccc2C1` (stereo partly drawn) [Example 140, 2-[(2R)-3-(3,4-dihydro-1H-isoquinolin-2-yl)-2-hydroxypropyl]-6-[[1-(2-fluoroethyl)-3-piperidyl]oxy]-3,4-dihydroisoquinolin-1-one] gave an IC50 [1] of 100 to 1000 nM.
`CN(C)CC#Cc1ccc2c(c1)CCN(C[C@H](O)CN1CCc3ccccc3C1)C2=O` [Example 141, 2-[(2R)-3-(3,4-dihydro-1H-isoquinolin-2-yl)-2-hydroxypropyl]-6-[3-(dimethylamino)prop-1-ynyl]-3,4-dihydroisoquinolin-1-one] was tested, and the IC50 [1] was 100 to 1000 nM.
